{"source": "patent US12570614B2", "about": "“Phenyl amino pyrimidine compounds and uses thereof” (GlaxoSmithKline LLC, priority 2007, dated 2026)", "key": {"[1]": {"system": "BaF3 TELJAK cells (BafT_J2)", "test": "Cellular screening, BaF3 TELJAK2 cells (Alamar Blue)", "format": "cell-based", "settings": "Mus musculus, BaF3; 48-72 hr incubation; read-out: BafT_J2_IC50_μM"}, "[2]": {"system": "IL-3 induced STAT5 phosphorylation in BaF3 cells", "test": "Western blot of IL-3 induced STAT5 phosphorylation in BaF3 cells", "format": "cell-based, murine", "settings": "2 hours compound, mouse IL-3 5 ng/ml 15 minutes", "experimental": "The Western blots were treated with a STAT5 phospho-specific antibody and exposed to film for 5 minutes (top blot) and 1 minute (middle blot).\nThe murine pro-B cell line BaF3 was routinely maintained in RPMI 1640 media containing 10% FCS. On the day of the experiment, cells were washed twice in PBS, and resuspended in RPMI 1640 media containing 0.1% FCS. […] Mouse IL-3 was then added to cells at a final concentration of 5 ng/ml for 15 minutes. Cells were then placed on ice and washed twice in ice-cold PBS. Washed cell pellets were snap-frozen in liquid nitrogen and stored at −80° C.\nCell pellets were lysed on ice in RIPA buffer, and lysates clarified by centrifugation (20,000×g, 4° C., 5 min). The protein concentration of lysates was determined by the Bradford method, and equal amounts of protein (60 μg/lane) were separated by SDS-PAGE. Protein was then transferred to PVDF, and Western blotting performed using an antibody that specifically recognizes STAT5 phosphorylated at tyrosine 694. The membrane was then stripped and reprobed with an antibody that recognizes total STAT5 protein."}, "[3]": {"system": "growth hormone-stimulated insulin-like growth factor-1 (IGF-1)", "test": "Growth hormone-stimulated IGF-1 concentrations in mouse plasma", "format": "in vivo", "settings": "female C3/H mice, 50 mg/kg oral gavage 8 h and 30 min prior to GH, 6 h post-GH", "experimental": "Blood samples were collected 6 h post-GH administration, and plasma IGF-1 concentrations measured using an ELISA for mouse IGF-1 (R & D Systems). Different superscripts denote significant differences (p<0.05) between groups detected by one-way ANOVA and Bonferroni's test post-hoc."}, "Ba/F3 TelJAK2 cells": {"system": "Ba/F3 TelJAK2 cells", "test": "Subcutaneous tumour model of Ba/F3 TelJAK2 cells in nude mice", "format": "in vivo, mouse", "settings": "for tumour volumes compared to Vehicle Control Treated Group: after 14 days of dosing; for mean percentage T/C: dosing day 14", "experimental": "Dosing commenced 11 days post-tumour cell inoculation, when tumours were palpable (mean tumour volume of 6 mm^3). Tumour dimensions were measured twice weekly."}, "[4]": {"system": "pYSTAT5 in erythroid cells (CD45lo, CD71hi) from bone marrow", "test": "Ex vivo pYSTAT5 flow cytometry in erythroid cells from JAK2 V617F positive patients", "format": "cell-based, human", "settings": "3 μM to 0.0041 μM, one hour, erythropoietin stimulated 10 minutes, patient bone marrow", "text": "To assess the activity of small molecule inhibitors of JAK2 an assay has been developed to quantify the activity of the JAK-STAT pathway by measuring the phosphorylation status of the downstream protein STAT5. After ligand binding, a haemopoietic cytokine receptor undergoes conformational change activating associated JAK2 protein. Activated JAK2 then phosphorylates the intracellular portion of the receptor forming binding sites for the recruitment of intracellular signaling proteins. […]\nResults of flow cytometry experiments are presented in two different formats (FIG. 7C). The pYSTAT5 positive population is quantitated as the percentage of cells in the upper right quadrant of the dot plot graphs (FIGS. 7A and B). […]\nThe second format of presentation is presented in the right panel of FIG. 7C. This measurement represents the mean fluorescence intensity in the pYSTAT5 channel and includes both erythroid cells that are stimulated by EPO and those that are not. This is an absolute value measurement of fluorescence and there was variability between these values between the three individuals tested. As the concentration of inhibitor is decreased the mean fluorescence of the total erythroid population moved towards the value of the positive control."}}, "note": "“Also recorded” adds a separate entry of the source."}
{"smiles": "N#CCNC(=O)c1ccc(-c2ccnc(Nc3ccc(N4CCOCC4)cc3)n2)cc1", "note": "[Compound 3, N-(cyanomethyl)-4-(2-(4-morpholinophenyl-amino)pyrimidin-4-yl)benzamide]", "values": [{"measurement": "IC50", "setting": "[1]", "result": "< 1000", "unit": "nM"}, {"measurement": "effect on IL-3 induced STAT5 phosphorylation (Western blot)", "setting": "[2]", "result": "dose-dependent effect; also recorded: decrease in STAT5 phosphorylation"}, {"measurement": "plasma IGF-1 concentration", "setting": "[3]", "result": "marked decrease"}, {"measurement": "tumour volumes compared to Vehicle Control Treated Group", "setting": "Ba/F3 TelJAK2 cells; 5 mg/kg", "result": "not different"}, {"measurement": "mean percentage T/C", "setting": "Ba/F3 TelJAK2 cells; 5 mg/kg/day oral gavage", "result": 82, "unit": "%"}, {"measurement": "mean percentage T/C", "setting": "Ba/F3 TelJAK2 cells; 10 mg/kg b.i.d. oral gavage", "result": 25, "unit": "%"}, {"measurement": "tumour volumes compared to Vehicle Control Treated Group", "setting": "Ba/F3 TelJAK2 cells; 10 mg/kg b.i.d., t-test p<0.05", "result": "smaller tumour volumes"}, {"measurement": "mean percentage T/C", "setting": "Ba/F3 TelJAK2 cells; 20 mg/kg b.i.d. oral gavage", "result": 39, "unit": "%"}, {"measurement": "tumour volumes compared to Vehicle Control Treated Group", "setting": "Ba/F3 TelJAK2 cells; 20 mg/kg b.i.d., t-test p<0.05", "result": "smaller tumour volumes"}, {"measurement": "effect on pYSTAT5 (STAT5 phosphorylation) in erythroid cells", "setting": "[4]", "result": "dose-dependent reduction"}, {"measurement": "effect on pYSTAT5 (STAT5 phosphorylation) in erythroid cells", "setting": "[4]; listed as compound 3", "result": "dose-dependent increase in inhibition"}]}
